Experimental data as given in patent US7785875B2, “Polynucleotide encoding HCV epitopes which can bind to various HLA supertypes, immunogenic composition comprising same and method of inducing an HCV-specific immune response using same” (priority 2004, dated 2010).

System: PBMCs derived from HCV-infected patients
Experiment: Ex vivo IFN-γ ELISPOT assay
Type: cell-based, human
Conditions: for responsiveness of positive reaction: positive = 30 or more SFCs per 2×10^5 PBMCs; for number of HLA types the epitope was positive to: of 9 HLA types found in the patients (A2, A24, A26, A3, B7, B15, B27, B44, B51)

Substance	responsiveness of positive reaction (HLA-A2 type patients)	responsiveness of positive reaction (HLA-A3 type patients)	responsiveness of positive reaction (HLA-A24 type patients)	responsiveness of positive reaction (HLA-A26 type patients)	Number of patients showing positive response/Number of patients having specific MHC type (HLA-A molecule A2)	Number of patients showing positive response/Number of patients having specific MHC type (HLA-A molecule A3)	Number of patients showing positive response/Number of patients having specific MHC type (HLA-A molecule A24)	Number of patients showing positive response/Number of patients having specific MHC type (HLA-A molecule A26)	responsiveness of positive reaction (HLA-B7 type patients)	responsiveness of positive reaction (HLA-B15 type patients)	responsiveness of positive reaction (HLA-B27 type patients)	responsiveness of positive reaction (HLA-B44 type patients)	responsiveness of positive reaction (HLA-B51 type patients)	Number of patients showing positive response/Number of patients having specific MHC type (HLA-B molecule B7)	Number of patients showing positive response/Number of patients having specific MHC type (HLA-B molecule B15)	Number of patients showing positive response/Number of patients having specific MHC type (HLA-B molecule B27)	Number of patients showing positive response/Number of patients having specific MHC type (HLA-B molecule B44)	Number of patients showing positive response/Number of patients having specific MHC type (HLA-B molecule B51)	number of HLA types the epitope was positive to
C1: HCV epitope peptide of 9 amino acids, NS3, region 1338 (TAGARLVVL) [Peptide C1]	11.5%	10.0%	4.18%	0%	3/26	3/30	1/24	0/1	11.7%	0%	0%	22.2%	20.0%	2/17	0/9	0/4	2/9	2/10	6
C4: HCV epitope peptide of 9 amino acids, NS2, region 894 (AILGPLMVF) [Peptide C4]	26.3%	23.5%	29.1%	0%	7/26	7/30	7/24	0/1	29.1%	44.4%	0%	22.2%	50.0%	5/17	4/9	0/4	2/9	5/10	7
L1: HCV epitope peptide of 9 amino acids, Core, region 118 (NLGKVIDTL) [Peptide L1]	11.5%	10.0%	8.3%	0%	3/26	3/30	2/24	0/1	11.7%	0%	0%	33.3%	10.0%	2/17	0/9	0/4	3/9	1/10	6
L2: HCV epitope peptide of 9 amino acids, E2, region 632 (YVGGVEHRL) [Peptide L2]	15.3%	13.3%	12.5%	0%	4/26	4/30	3/24	0/1	5.8%	22.2%	25.0%	11.1%	20.0%	1/17	2/9	1/4	1/9	2/10	8
L6: HCV epitope peptide of 9 amino acids, E2, region 628 (KVRMYVGGV) [Peptide L6]	15.3%	10.0%	8.3%	0%	4/26	3/30	2/24	0/1	11.7%	11.1%	0%	11.1%	30.0%	2/17	1/9	0/4	1/9	3/10	7
L7: HCV epitope peptide of 9 amino acids, NS2, region 883 (ELIFDITKL) [Peptide L7]	19.2%	10.0%	12.5%	0%	5/26	3/30	3/24	0/1	17.6%	22.2%	25.0%	11.1%	20.0%	3/17	2/9	1/4	1/9	2/10	8
